These results are taken from ChEMBL document CHEMBL4627257, “Targeting the DNA damage response (DDR) by natural compounds” (Bioorg Med Chem, 2020).

Active and inactive are the calls of the source. No cut-off for these calls is given here.

The test system of data set [1] is SU.86.86. The experiment in a line: Induction of DNA damage in human SU8686 cells assessed as increase in gammaH2AX phosphorylation at […] at cytotoxic IC50 incubated for 24 hrs by fluorometry method. It is filed as functional.
Data set [2] deals with SU.86.86. The experiment in a line: Induction of DNA damage in human SU8686 cells assessed as increase in gammaH2AX phosphorylation at […] at cytotoxic IC50 in presence of 5 uM cisplatin by fluorometry method. The data set is classed as functional.
The subject of data set [3] is SU.86.86. The experiment in a line: Induction of DNA damage in human SU8686 cells assessed as tail DNA formation at IC50 in presence of 5 uM cisplatin by alkaline Comet assay. The data set is classed as functional, cell-based.
Data set [4] concerns SU.86.86. The experiment in a line: Induction of DNA damage in human SU8686 cells assessed as increase gammaH2AX protein level at IC50 for 24 hrs by western blot analysis. It is filed as functional, cell-based. For orientation: In western blotting, separated proteins are transferred to a membrane and probed.
Data set [5] relates to SU.86.86. In words: Induction of DNA damage in human SU8686 cells assessed as tail DNA formation at IC50 by alkaline Comet assay. The data set is classed as functional, cell-based.
The test system of data set [6] is SU.86.86. The experiment in a line: Induction of DNA damage in human SU8686 cells assessed as increase in gammaH2AX nuclear foci under basal condition at IC50 by fluorometry method. It is filed as functional, cell-based.
Data set [7] in a line: Drug uptake in human SU8686 cells assessed as increase in doxorubicin uptake by flow cytometry analysis. It is filed as ADME, cell-based. The following applies: su.86.86. For orientation: Flow cytometry measures light scatter and fluorescence of single cells or particles in a stream.
In data set [8] the test system is BXPC-3. The experiment in a line: Cytotoxicity against human BxPC3 cells assessed as cell viability after 72 hrs incubated with resazurin sodium salt by Alamar blue assay. The data set is classed as functional. On the technique in general: Resazurin is reduced to fluorescent resorufin, in cell work by metabolically active cells.
The test system of data set [9] is SU.86.86. In words: Cytotoxicity against human SU8686 cells assessed as cell viability after 72 hrs incubated with resazurin sodium salt by Alamar blue assay. It is filed as functional.
Data set [10] has as its system SU.86.86. In words: Induction of DNA damage in human SU8686 cells assessed as increase in gammaH2AX phosphorylation at […] at cytotoxic IC50 in presence of 0.3 uM doxorubicin by fluorometry method. The data set is classed as functional.
Data set [11] relates to SU.86.86. The experiment in a line: Induction of DNA damage in human SU8686 cells assessed as increase gammaH2AX protein level at IC50 for 24 hrs in presence of 5 uM cisplatin by western blot analysis. The data set is classed as functional, cell-based.
Data set [12] concerns SU.86.86. The experiment in a line: Induction of DNA damage in human SU8686 cells assessed as increase gammaH2AX protein level at IC50 for 24 hrs in presence of 0.3 uM doxorubicin by western blot analysis. It is filed as functional, cell-based.

Regarding `CC1=CCC[C@H]2[C@@](C)(CC3=C(O)C(=O)C=C(NCCc4ccccc4)C3=O)[C@@H](C)CC[C@@]12C`, the Activity in data set [1] was above 30%; in data set [2], above 20%. Also, the result in data set [3], in data set [4], in data set [5] and in data set [6] was Active. Besides, the Drug uptake result in [7] was “Active”.

Consider `COC(=O)[C@@]12Oc3ccc(-c4ccc5c(c4O)C(=O)C4=C(O)C[C@H](C)[C@H](O)[C@]4(C(=O)OC)O5)c(O)c3C(=O)C1=C(O)C[C@H](C)[C@H]2O`, for which the Activity in data set [1] was above 30%; in [8], 2.5 µM; in data set [9], 3 µM; in data set [2], above 20%; in [10], above 20%. The result in data set [5], in data set [11] and in data set [6] was Active.

Take `C=C1CCC[C@H]2[C@](C)(CC3=C(O)C(=O)C=C(OC)C3=O)[C@@H](C)CC[C@@]12C`: the Activity in data set [1] is listed as above 30%; in data set [2], above 20%; in [10], above 20%. Also, the result in data set [4], in [5], in [11], in data set [12] and in [6] was Active.
